# Assay results taken from publication PMC8308845, “Discovery of Novel Chemical Series of OXA-48 β-Lactamase Inhibitors by High-Throughput Screening” (Pharmaceuticals, 2021).
# Several values for one entry are separate records, joined by “and”; a condition that tells them apart may be missing. Equal entries are not always repeated. Where two headings read alike, the source gives them in different places.
# Assays:
# [1] = target: T1, OXA-48 (Klebsiella pneumoniae, UniProt Q6XEC0); assay: OXA-48 primary enzymatic assay (nitrocefin substrate, fluorescence-quenching readout); assay type: biochemical; conditions: dose–response, median of triplicate wells; 15 min preincubation, 25 µM nitrocefin
# T1 construct: made in house; host or cells: E. coli BL21(DE3), T7 expression system
# T1 sequence (Q6XEC0 23-265, looked up): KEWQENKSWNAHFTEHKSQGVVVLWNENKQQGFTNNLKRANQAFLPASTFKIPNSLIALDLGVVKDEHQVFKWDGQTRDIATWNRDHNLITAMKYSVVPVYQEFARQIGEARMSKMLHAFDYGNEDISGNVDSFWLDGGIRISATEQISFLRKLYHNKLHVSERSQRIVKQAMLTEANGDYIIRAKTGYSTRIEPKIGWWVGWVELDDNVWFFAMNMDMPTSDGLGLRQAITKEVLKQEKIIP
# Protocol: After an initial pilot run (three plates, consisting of 960 randomly selected compounds), the primary screening of the subset plates was carried out at 20 µM in single point against OXA-48 enzyme in a nitrocefin-based assay, using the fluorescence-quenching readout. This enzymatic assay employs the cephalosporin nitrocefin as OXA-48 substrate and takes advantage of the fluorescent properties of white microtiter plates. Chromogenic nitrocefin is hydrolyzed by β-lactamases to yield a product with increased absorbance properties (~495 nm) that quenches the plate fluorescence by absorbing the plate’s emission light. In this assay, test compounds that inhibit OXA-48 catalytic activity are predicted to reduce nitrocefin quenching of plate fluorescence, resulting in a quantitative increase in well fluorescence (ON-system for inhibitors). The nitrocefin-based epi-absorbance readout system has been successfully applied in HTS campaigns on other β-lactamases, such as IMP-1 and VIM-2, with the identification of inhibitors belonging to novel scaffolds displaying a favourable degree of selectivity and sub-micromolar potency.
# The screening results were expressed as activity percent. […] Overall, the primary assay robustness was good, with Robust Z Prime factor (RZ′) equal to 0.86.
# In total, 256 active molecules (125 from the subset and 131 from the full set) were then assayed in dose–response at eight concentrations from 60 to 0.002 µM with interplate triplicate data points.
# The blaOXA gene coding for the OXA-48 ß-lactamase, originally cloned from the K. pneumonia 11978 (a clinical isolate from Istanbul Faculty Hospital, Istanbul, Turkey) was overexpressed via a T7 expression system in E. coli BL21(DE3), and its product, native protein, (final yield of 30 mg/L of culture) was subjected to several purification steps, including ion-exchange chromatography with Q-Sepharose and 20 mM Tris-HCl buffer (pH 9.0), followed by chromatography with S-Sepharose columns and 100 mM sodium phosphate buffer (pH 5.8). Elution of the beta-lactamase was performed with a K2SO4 gradient. Peaks of beta-lactamase activity were concentrated and were dialyzed with 100 mM phosphate buffer (pH 7.0). The OXA-48 enzyme was purified to homogeneity (with a degree of purity around 95.4%.)-as measured by 12% SDS PAGE [23]. OXA-48 protein stock solution (2 mg/mL) was finally prepared in 20 mM Hepes (pH 8,1). OXA-48 β-lactamase specific activity was measured by following the hydrolysis of 100 μM nitrocefin (ε: 17,000 M-1 cm^−1 at 482 nm; Δε: 15,000 M-1 cm^−1 at 482 nm) and corresponding to 60.45 μmoles min^−1 mg^−1 of OXA-48 (kcat = 28.85 s^−1) enzyme. A MW of 28,147 g/mol, calculated from the enzyme sequence was confirmed by MALDI-TOF analysis with a Mass error of ± 2.8 Da.
# The primary assay was developed to monitor the enzymatic activity of OXA-48 taking advantage of the spectroscopic properties of white microtiter plates (Optiplate-384, PerkinElmer, #6007290), as indicated by Zuck et al.. Nitrocefin is chromogenic substrate for beta-lactamases with λmax = 395 nm (yellow). Upon hydrolysis by OXA-48, nitrocefin yields (2R)-2-[(R)-carboxy[2-(thiophen-2-yl)acetamido]methyl]-5-[(E)-2-(2,4-dinitrophenyl)ethenyl]-3,6-dihydro-2H-1,3-thiazine-4-carboxylic acid, with increased absorbance properties at λmax = 495 nm. Spectroscopic features of the reaction product are exploited to quench the plate intrinsic fluorescence by absorbing the plate’s emission light, which can be monitored by exciting the reaction at 485 nm and recording the emission at 520 nm. Therefore, the primary assay for HTS was an ON-assay, in which compounds targeting OXA-48 were predicted to elicit an increase of the fluorescence signal.
# The primary assay was performed in reaction buffer (20 mM Hepes pH 8.0, 12.5 mM NaCl, 0.005% BSA, 0.0005% Brij-35) in the presence of 0.0014 ng/µL OXA-48 and 25 µM nitrocefin in a final volume of 20 µL/well in 384 MTP format. […]
# [2] = test system: E. coli ATCC25922; assay: MIC by broth microdilution, antibiotic-sensitive strain; assay type: cell-based; conditions: Escherichia coli
# Source text: (§1) To evaluate the capability of restoring β-lactam susceptibility, the two most promising representatives of SC_2 (ID3) and SC_7 (ID2) were screened alone and in combination with ampicillin (AMP) and IMP against sensitive and resistant Gram-negative bacteria. Avibactam and tazobactam were also included in the MIC characterization as BLI reference compounds. Specifically, we used E. coli ATCC25922 as antibiotic-sensitive strain, while E. coli ATCC BAA-2523 and K. pneumoniae ATCC BAA-2524 as β-lactam-resistant bacteria, producing OXA-48 carbapenemase.
# (§2) Test compounds and tazobactam were tested at 32 µg/mL, while avibactam was applied at 4 µg/mL. […] Both antibiotics were selected for the combination study as they can be hydrolyzed by the target OXA-48 enzyme.
# (§3) MIC values were determined by the broth dilution method and interpreted using published guidelines described by Clinical and Laboratory Standards Institute (CLSI).
# (§4) All BLIs were dissolved in 100% DMSO and they were tested at a fixed concentration of 32 µg/mL and 1% of DMSO final concentration. Avibactam was used as reference β-lactamase inhibitor. All antimicrobials were prepared in line with CLSI susceptibility testing standards. AMP (USP # 1033000; batch no. K1M493) was dissolved at 5.12 mg/mL, IMP (USP # 1337809; batch no. R038R0) and avibactam (Biochem # NXL 104; batch no. 20180726) were dissolved at 1.28 mg/mL in the respective solvents recommended by CLSI (2). Solutions at 4X the final concentrations of the test range were made in Cation adjusted Mueller-Hinton broth (CA-MHB, BD # 212322; batch no. 6117994; Expiry date: 29.02.2020) by serial dilutions, and then diluted 2-fold with CA-MHB (for antimicrobials alone), or with the BLIs/avibactam (for combinations of new/reference inhibitors and antimicrobials). Moreover, all BLIs were tested alone at a fixed concentration of 32 μg/mL. The final concentration of DMSO in the test tubes was 1% for each different combination.
# (§5) 50 μL of each well were then transferred from the masterblock into 96-well plates to whom were then added 50 μL of the final inoculum. MIC tests were performed by broth microdilution in line with CLSI susceptibility testing standards. Bacterial inocula were prepared at ca. 1 × 10^6 CFU/mL by diluting 100-fold a 0.5 McFarland suspension in CA-MHB with TES (TREK Diagnostic Systems, Product code: T3462; Batch: 356347; Expiry date: 12-Jun-2019). 50 μL of antibacterial solutions at 2 × the final concentrations were diluted 2-fold with 50 μL of inoculum to give a final inoculum of ca. 5 × 10^5 CFU/mL and desired test concentrations of antibacterial agents. Test plates were incubated according to CLSI guidelines and read visually. MIC values corresponded to the first well with no visible growth.
# [3] = test system: K. pneumoniae ATCC BAA-2524; assay: MIC by broth microdilution, β-lactam-resistant strain producing OXA-48; assay type: cell-based, Klebsiella pneumoniae; conditions: for MIC: Klebsiella pneumoniae
# Source text: as §1, §2, §3, §4, §5
# [4] = test system: E. coli ATCC BAA-2523; assay: as above; assay type: cell-based, Escherichia coli; conditions: for MIC: Escherichia coli
# Source text: as §1, §2, §3, §4, §5
# [5] = β-lactam alone, read-out: MIC β-lactam
# [6] = ATCCBAA2524, β-lactam alone, read-out: MIC β-lactam
# [7] = ATCCBAA2523, β-lactam alone, read-out: MIC β-lactam
SMILES,AC50 [1],"MIC [2, 5] [µg/mL]","MIC [3, 6] [µg/mL]","MIC [4, 7] [µg/mL]",other results
O=C(O)c1ccc(/C=N/n2c(S)nnc2-c2ccc(Cl)cc2)cc1 [ID3],723 nM and 720 nM,,,,"MIC ([2]; no β-lactam, BLI tested at 32 µg/mL, read-out: MIC, BLI alone): > 32 µg/mL; MIC ([3]; ATCCBAA2524, no β-lactam, BLI tested at 32 µg/mL, read-out: MIC, BLI alone): > 32 µg/mL; MIC ([4]; ATCCBAA2523, no β-lactam, BLI tested at 32 µg/mL, read-out: MIC, BLI alone): > 32 µg/mL"
"CC1(C)S[C@@H]2[C@H](NC(=O)[C@H](N)c3ccccc3)C(=O)N2[C@H]1C(=O)O [AMP, ampicillin]",,4,> 512,> 512,MIC β-lactam ([3]; β-lactam alone): >512 µg/mL; MIC β-lactam ([4]; β-lactam alone): >512 µg/mL
"C[C@@H](O)[C@H]1C(=O)N2C(C(=O)O)=C(SCCN=CN)C[C@H]12 [IMP, imipenem]",,0.12,4,2,
"CCc1ccc(-c2n[nH]c3nc(-c4cc(F)c(O)c(Cl)c4)cc(C(=O)O)c23)cc1 [Compound 9, 6-(3-Chloro-5-fluoro-4-hydroxyphenyl)-3-(4-ethylphenyl)-1H-pyrazolo[3,4-b]pyridine-4-carboxylic acid]",63800 nM,,,,
"CCc1ccc(-c2n[nH]c3nc(-c4ccc(C(=O)O)c(F)c4)cc(C(=O)O)c23)cc1 [Compound 1, 6-(4-Carboxy-3-fluorophenyl)-3-(4-ethylphenyl)-1H-pyrazolo[3,4-b]pyridine-4-carboxylic acid]",920 nM,,,,
"CCc1ccc(-c2n[nH]c3nc(-c4ccc(C(=O)O)cc4)cc(CC)c23)cc1 [Compound 13, 4-(4-Ethyl-3-(4-ethylphenyl)-1H-pyrazolo[3,4-b]pyridin-6-yl)benzoic acid]",> 100000 nM,,,,
